Measurements published in article PMC11054487, “Species-Specific Unbound Fraction Differences in Highly Bound PFAS: A Comparative Study across Human, Rat, and Mouse Plasma and Albumin” (Toxics, 2024).

What was measured:
human plasma = assay: Presaturation equilibrium dialysis, fraction unbound in human plasma; format: in vitro ADME; details: 5 μM PFAS, 18 h, 37 °C, value (CV)
Protocol: (§1) Each PFAS:matrix combination was assessed in quadruplicate.
(§2) The injection volume for each sample was 5 µL.

mouse (C57BL/6) plasma = assay: Presaturation equilibrium dialysis, fraction unbound in C57BL/6 mouse plasma; format: in vitro ADME; details: 5 μM PFAS, 18 h, 37 °C, value (CV)
Protocol: as §1, §2

[1] = target: mouse serum albumin (MSA) (Mus musculus, UniProt P07724); assay: Presaturation equilibrium dialysis, fraction unbound in mouse serum albumin solution; details: for fraction unbound at 18 h, 5 µM: mouse
Protocol: (§3) The equilibrium dialysis device (EQD) HTD96 (Gales Ferry, CT, USA) was assembled according to manufacturer instructions. DPBS buffer solutions were prepared by adding PFAS with a concentration of either approximately five-fold of the estimated fu values based on initial available data or assumed to be 0.001 if no data was available. The dialysis apparatus and membranes assembled were pre-saturated (250 µL) three times in total with PFAS spiked DPBS buffer solution; twice for 1 h followed by a final 18-h pre-saturation. This same solution was used on the receiver side of the EQD. […] This 4% albumin was used in the albumin binding study to recapitulate plasma concentration, as human albumin concentration in plasma is 3.5–4.5 g/dL (530–680 µM). The matrix was diluted five-fold using DPBS for PFAS that had preliminary fu values lower than 0.01. Dimethylsulfoxide (DMSO) stock solutions of test PFAS were prepared at 500 μM and added to species-specific plasma or 4% albumin to a final concentration of 5 μM with 1% DMSO. Next, 150 μL of PFAS spiked DPBS was added to the receiver side of the membrane and 150 μL of compound spiked matrix was added to the donor side. […] Each PFAS:matrix combination was assessed in quadruplicate. For sample collection, 15 μL of buffer and 45 μL of matrix were sampled from the dialysis device into a 96-deep well plate and matrix-matched with either blank buffer or matrix. The samples were then quenched with 200 μL of cold acetonitrile containing internal standard (tolbutamide 30 nM and carbamazepine 12 nM) to precipitate proteins. Next, the plates were sealed and placed on a vortex mixer for 1 min, and then centrifuged (Beckman Coulter, Fullerton, CA, USA) at 3000 rpm for 5 min at room temperature. Lastly, the supernatant was transferred to a new 96-well plate, fully dried down under nitrogen gas, reconstituted with 200 µL of 50/50 (v/v) HPLC grade water/acetonitrile, and vortexed for 1 min prior to LC-MS/MS analysis.
(§4) LC-MS/MS analyses were performed on a SCIEX Triple Quad 5500 mass spectrometer (SCIEX, Concord, ON, Canada) equipped with Turbo Ion Spray interface. […] All instruments were controlled and synchronized by SCIEX Analyst software (version 1.6.3). Mobile phases compositions were 0.1% formic acid in water (mobile phase A) and 0.1% formic acid in acetonitrile (mobile phase B). […] The column was equilibrated at 5% B for 0.5 min before injecting samples. The total run time for each injection was 6 min. The chromatographic separation was conducted on a Phenomenex Kinetex C18 100Å 30 × 2.1 mm column (Torrance, CA, USA) with a flow rate of 0.5 mL/min. The injection volume for each sample was 5 µL. Multiple-reaction-monitoring (MRM) mode using specific precursor/product ion transitions was used for quantification. Data processing was performed using SCIEX Analyst software (version 1.6.3).
(§5) The calculations for fu are shown in Equations (1) and (2), where D is the dilution factor and fu,d is the diluted fu shown below. All calculations are based on area ratios (analyte peak area/IS peak area), and MS responses used for calculations were all in linear ranges. […] (1) Diluted fud=Receiver Area Ratio/Donor Area Ratio (2) Undiluted fu=1/D/1/fu,d−1+1/D
(§6) Albumin concentrations for rodents have been reported in the literature as rat: 3.0 g/dL; CD-1 mice: 2.7 g/dL; C57BL/6 mice: 2.9 g/dL [53].

[2] = target: T1, human serum albumin (HSA) (Homo sapiens, UniProt P02768); assay: Presaturation equilibrium dialysis, fraction unbound in human serum albumin solution; format: in vitro ADME; details: 4% human serum albumin in PBS, 5 μM PFAS, value (CV); for fraction unbound at 18 h, 5 µM: 4% human serum albumin (HSA) solution, read-out: Fraction Unbound (fu) and Coefficient of Variance (CV), HSA
T1 construct: purchased Sigma-Aldrich
Protocol: as §1, §2

mouse (CD-1) plasma = assay: Presaturation equilibrium dialysis, fraction unbound in CD-1 mouse plasma; format: in vitro ADME; details: 5 μM PFAS, 18 h, 37 °C, value (CV)
Protocol: as §1, §2

rat (Wistar-Han) plasma = assay: Presaturation equilibrium dialysis, fraction unbound in rat plasma; format: in vitro ADME; details: 5 μM PFAS, 18 h, 37 °C, value (CV)
Protocol: as §1, §2

rat serum albumin (RSA) = rat serum albumin (RSA) (Rattus norvegicus, UniProt P02770); assay: Presaturation equilibrium dialysis, fraction unbound in rat serum albumin solution; details: for fraction unbound at 18 h, 5 µM: rat
Protocol: as §3, §4, §5, §6

[3] = humans; cited from earlier work
[4] = Presaturation equilibrium dialysis, fraction unbound in human plasma; format: in vitro ADME; details: human, 5 μM PFAS, 37 °C, value (CV), read-out: Fraction Unbound (fu) and Coefficient of Variance (CV), Human Plasma
Protocol: as §1, §2

[5] = Presaturation equilibrium dialysis, fraction unbound in C57BL/6 mouse plasma; format: in vitro ADME; details: 5 μM PFAS, 37 °C, value (CV), read-out: Fraction Unbound (fu) and Coefficient of Variance (CV), C57BL/6 Plasma
Protocol: as §1, §2

[6] = Presaturation equilibrium dialysis, fraction unbound in CD-1 mouse plasma; format: in vitro ADME; details: 5 μM PFAS, 37 °C, value (CV), read-out: Fraction Unbound (fu) and Coefficient of Variance (CV), CD-1 Plasma
Protocol: as §1, §2

[7] = Presaturation equilibrium dialysis, fraction unbound in rat plasma; format: in vitro ADME; details: Wistar-Han rat plasma, 5 μM PFAS, 37 °C, value (CV), read-out: Fraction Unbound (fu) and Coefficient of Variance (CV), Rat Plasma
Protocol: as §1, §2

[8] = 3% mouse serum albumin, value (%CV)
[9] = 4% mouse serum albumin in PBS, 5 μM PFAS, value (CV)
[10] = 3% rat serum albumin, value (%CV)
[11] = 4% rat serum albumin in PBS, 5 μM PFAS, value (CV)
[12] = 4% mouse serum albumin (MSA) solution, Fraction Unbound (fu) and Coefficient of Variance (CV), MSA, 4% mouse serum albumin in PBS, 5 μM PFAS, value (CV)
[13] = isolated protein, Fraction unbound (fu) and %CV, MSA 3%, 3% mouse serum albumin, value (%CV)
[14] = 4% rat serum albumin (RSA) solution, Fraction Unbound (fu) and Coefficient of Variance (CV), RSA, 4% rat serum albumin in PBS, 5 μM PFAS, value (CV)
[15] = isolated protein, Fraction unbound (fu) and %CV, RSA 3%, 3% rat serum albumin, value (%CV)

rat serum albumin (RSA), sequence (P02770 25-608): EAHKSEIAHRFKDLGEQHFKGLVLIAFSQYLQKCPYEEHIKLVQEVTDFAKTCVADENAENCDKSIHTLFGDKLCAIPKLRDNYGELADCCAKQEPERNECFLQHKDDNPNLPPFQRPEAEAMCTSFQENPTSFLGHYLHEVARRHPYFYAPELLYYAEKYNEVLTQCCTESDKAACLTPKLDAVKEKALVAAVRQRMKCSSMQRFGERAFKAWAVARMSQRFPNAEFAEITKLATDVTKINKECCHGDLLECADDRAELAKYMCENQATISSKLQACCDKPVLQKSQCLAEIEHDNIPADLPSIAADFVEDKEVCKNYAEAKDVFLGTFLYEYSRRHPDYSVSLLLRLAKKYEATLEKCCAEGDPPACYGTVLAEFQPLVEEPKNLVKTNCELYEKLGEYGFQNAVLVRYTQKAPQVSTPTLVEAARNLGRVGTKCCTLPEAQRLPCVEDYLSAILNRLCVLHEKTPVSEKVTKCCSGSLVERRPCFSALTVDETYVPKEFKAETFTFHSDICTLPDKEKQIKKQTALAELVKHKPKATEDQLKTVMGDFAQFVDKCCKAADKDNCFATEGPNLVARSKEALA
mouse serum albumin (MSA), sequence (P07724 25-608): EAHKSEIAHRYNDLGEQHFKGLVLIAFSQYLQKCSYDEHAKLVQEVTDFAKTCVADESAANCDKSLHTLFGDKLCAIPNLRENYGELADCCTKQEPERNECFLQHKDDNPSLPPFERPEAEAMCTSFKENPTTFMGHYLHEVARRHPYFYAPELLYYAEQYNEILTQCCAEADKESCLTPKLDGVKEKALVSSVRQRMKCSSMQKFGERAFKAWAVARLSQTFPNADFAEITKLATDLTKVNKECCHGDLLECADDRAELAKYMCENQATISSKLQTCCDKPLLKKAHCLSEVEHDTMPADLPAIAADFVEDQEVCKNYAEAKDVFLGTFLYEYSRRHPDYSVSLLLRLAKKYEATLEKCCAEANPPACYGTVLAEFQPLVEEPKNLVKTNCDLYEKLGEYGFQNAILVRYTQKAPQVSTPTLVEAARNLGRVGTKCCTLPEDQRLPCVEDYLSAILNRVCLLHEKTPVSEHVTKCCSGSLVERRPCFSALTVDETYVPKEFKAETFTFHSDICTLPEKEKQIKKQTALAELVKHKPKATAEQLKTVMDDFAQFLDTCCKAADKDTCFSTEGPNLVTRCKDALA
T1 sequence (P02768 25-609): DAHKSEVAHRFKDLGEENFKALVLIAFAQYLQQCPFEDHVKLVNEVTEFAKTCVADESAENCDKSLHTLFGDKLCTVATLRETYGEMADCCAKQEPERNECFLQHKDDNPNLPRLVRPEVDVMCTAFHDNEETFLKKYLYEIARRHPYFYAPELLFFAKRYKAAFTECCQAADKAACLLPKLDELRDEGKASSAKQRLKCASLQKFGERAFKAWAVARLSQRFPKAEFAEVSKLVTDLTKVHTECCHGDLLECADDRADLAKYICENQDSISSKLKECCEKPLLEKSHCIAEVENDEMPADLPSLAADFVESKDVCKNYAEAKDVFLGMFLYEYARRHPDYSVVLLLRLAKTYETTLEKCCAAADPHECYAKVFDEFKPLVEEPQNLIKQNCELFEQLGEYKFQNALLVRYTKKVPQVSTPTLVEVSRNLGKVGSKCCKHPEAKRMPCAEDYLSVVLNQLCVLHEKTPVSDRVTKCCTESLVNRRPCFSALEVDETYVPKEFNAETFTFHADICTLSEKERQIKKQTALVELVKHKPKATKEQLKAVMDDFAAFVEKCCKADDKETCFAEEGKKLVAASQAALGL

SMILES	Fraction Unbound (fu) and Coefficient of Variance (CV), Human Plasma (human plasma)	Fraction Unbound (fu) and Coefficient of Variance (CV), C57BL/6 Plasma (mouse (C57BL/6) plasma)	Fraction unbound (fu) and %CV, MSA 3% [1, 8]	Fraction Unbound (fu) and Coefficient of Variance (CV), MSA [1, 9]	Fraction Unbound (fu) and Coefficient of Variance (CV), HSA [2]	Fraction Unbound (fu) and Coefficient of Variance (CV), CD-1 Plasma (mouse (CD-1) plasma)	Fraction Unbound (fu) and Coefficient of Variance (CV), Rat Plasma (rat (Wistar-Han) plasma)	Fraction unbound (fu) and %CV, RSA 3% (rat serum albumin (RSA); [10])	Fraction Unbound (fu) and Coefficient of Variance (CV), RSA (rat serum albumin (RSA); [11])	half-lives [3]	t1/2 [3]	fraction unbound at 18 h, 5 µM [4]	fraction unbound at 18 h, 5 µM [5]	fraction unbound at 18 h, 5 µM [1, 12]	fraction unbound at 18 h, 5 µM [1, 13]	fraction unbound at 18 h, 5 µM [2]	fraction unbound at 18 h, 5 µM [6]	fraction unbound at 18 h, 5 µM [7]	fraction unbound at 18 h, 5 µM (rat serum albumin (RSA); [14])	fraction unbound at 18 h, 5 µM (rat serum albumin (RSA); [15])
O=S(=O)(O)CCC(F)(F)C(F)(F)C(F)(F)C(F)(F)C(F)(F)C(F)(F)F [6:2 FtS, 6:2 fluorotelomer sulfonate]	0.0197(2%)	0.0253(2%)	0.0091 (9%)	0.0113(9%)	0.00746(0%)	0.0255(2%)	0.0236(4%)	0.00892 (4%)	0.0111(4%)											
O=C(O)C(F)(F)C(F)(F)C(F)(F)F [PFBA, Perfluorobutanoic acid]		0.767(2%)	0.206 (23%)	0.24(22%)	0.15(5%)	0.757(6%)	0.37(24%)	0.18 (3%)	0.216(3%)	3 days	3.1 days									
O=S(=O)(O)C(F)(F)C(F)(F)C(F)(F)C(F)(F)F [PFBS, perfluorobutanesulfonic acid]		0.28(5%)	0.0321 (11%)	0.0396(11%)	0.056(5%)	0.261(7%)	0.0542(3%)	0.0168 (8%)	0.0208(8%)	26 days	26 days									
O=C(O)C(F)(F)C(F)(F)C(F)(F)C(F)(F)C(F)(F)C(F)(F)C(F)(F)C(F)(F)C(F)(F)C(F)(F)C(F)(F)F [PFDoDA, perfluorododecanoic acid]												0.000105	0.000205	0.000217	0.000175	0.000157	0.000222	7.96e-05	9.64e-05	7.77e-05
O=C(O)C(F)(F)C(F)(F)C(F)(F)C(F)(F)C(F)(F)F [PFHxA, perfluorohexanoic acid]	0.038(6%)	0.182(7%)	0.0266 (11%)	0.0329(11%)	0.0336(7%)	0.169(5%)	0.0358(7%)	0.0212 (4%)	0.0264(4%)											
O=S(=O)(O)C(F)(F)C(F)(F)C(F)(F)C(F)(F)C(F)(F)C(F)(F)F [PFHxS, perfluorohexanesulfonic acid]												0.000695	0.013	0.00225	0.00181	0.000245	0.0128	0.00076	0.000573	0.00047
O=S(=O)(O)C(F)(F)C(F)(F)C(F)(F)C(F)(F)C(F)(F)C(F)(F)C(F)(F)C(F)(F)F [PFOS, perfluorooctanesulfonic acid]		0.00256(8%)	0.00102 (19%)	0.00126(19%)	0.000524(13%)		0.00109(4%)	0.000697 (25%)	0.000852(25%)		3.3–5.4 years									
O=C(O)C(F)(F)C(F)(F)C(F)(F)C(F)(F)F [PFPA, perfluoropentanoic acid]	0.0888(3%)	0.577(5%)	0.0809 (11%)	0.0987(11%)	0.0933(6%)	0.609(4%)	0.18(2%)	0.0769 (4%)	0.0942(4%)											
O=C(O)C(F)(F)C(F)(F)C(F)(F)C(F)(F)C(F)(F)C(F)(F)C(F)(F)C(F)(F)C(F)(F)C(F)(F)F [PFUDA, perfluoroundecanoic acid]	0.000419(24%)		0.000417 (19%)	0.000513(19%)	0.000417(23%)	0.000524(15%)	0.000349(20%)	0.000147 (28%)	0.000178(28%)											
